Laboratory results reported in US20200199102A1, “COMPOUNDS THAT PARTICIPATE IN COOPERATIVE BINDING AND USES THEREOF” (Revolution Medicines, Inc., priority 2017, published 2020).
Where a SMILES comes first, the peptide text is derived from it. [ ]: non-standard residue; d: D form. MeBmt = C/C=C/C[C@@H](C)[C@@H](O)[C@H](NC)C(=O)O; NMeF = CN[C@@H](Cc1ccccc1)C(=O)O; NMeI = CC[C@H](C)[C@H](NC)C(=O)O; NMeT = CN[C@H](C(=O)O)[C@@H](C)O; NMeL = CN[C@@H](CC(C)C)C(=O)O; NMeV = CN[C@H](C(=O)O)C(C)C; NMeA = CN[C@@H](C)C(=O)O; dNMeA = CN[C@H](C)C(=O)O; Abu = CC[C@H](N)C(=O)O; Sar = CNCC(=O)O

Target: T1, Cyclophilin A (Homo sapiens, UniProt P62937)
T1 construct: made in house
T1 sequence (P62937 whole entry, species assumed): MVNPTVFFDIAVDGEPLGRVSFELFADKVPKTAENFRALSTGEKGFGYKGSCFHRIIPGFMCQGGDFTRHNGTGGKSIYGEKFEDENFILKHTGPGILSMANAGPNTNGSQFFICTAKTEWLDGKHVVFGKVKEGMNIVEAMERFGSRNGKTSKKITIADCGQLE
Test: AlphaLISA inhibition of binding of biotinylated Cyclosporin A to FLAG tagged Cyclophilin A
Conditions: for % signal: AlphaLISA signal; for % signal / % inhibition of CsA binding to Cyclophilin A: test concentration not given; for IC50: read-out: IC50 value of CsA binding to Cyclophilin A
Source text: The binding of compounds of the invention to Cyclophilin A can be determined using the following protocol.
This protocol utilizes Perkin Elmers AlphaLISA technology platform to detect cyclosporine analogues by measuring the inhibition of binding of biotinylated Cyclosporin A to FLAG tagged Cyclophilin A.
10×TBST Buffer (Boston BioProducts IBB-181), Biotinylated Cyclosporin A (in-house), FLAG tagged Cyclophilin A (in-house); anti-FLAG Donor beads (PerkinElmer AS103) and Streptavidin Acceptor beads (PerkinElmer AL125); Compounds in DMSO (in-house), Cyclosporin A (LC Labs Cat #C-6000).
Add 20 uL of 6 nM Biotinylated CsA working stock to each well of the 96-well plate. Add 1 uL of test compound (100% DMSO) to each well of the plate using the Janus MTD head and P20 tips (except control wells). Add 1 uL of DMSO to negative control wells and 1 uL of 500 uM Cyclosporin A solution to positive control wells. In the dark, add 20 uL of combined Donor/Acceptor beads to each well. Incubate in the dark for 30 minutes at room temperature. In the dark, add 10 uL of 25 nM Flag tagged CypA working stock to each well. Incubate in the dark for 60 minutes at room temperature. Protect plate from light until reading on Biotek Synergy2 Plate Reader; Alphalisa 96-well protocol (680 excitation/615 emission).

Compound | % signal [%] | IC50 [nM] | % inhibition of CsA binding to Cyclophilin A [%]
C/C=C/C[C@@H](C)[C@@H](O)[C@H]1C(=O)N[C@@H](CC)C(=O)N(C)CC(=O)N(C)[C@@H]([C@@H](C)CC)C(=O)N[C@@H](C(C)C)C(=O)N(C)[C@@H](C)C(=O)N[C@@H](C)C(=O)N[C@H](C)C(=O)N(C)[C@@H](CC(C)C)C(=O)N(C)[C@@H](CC(C)C)C(=O)N(C)[C@@H](C(C)C)C(=O)N1C [Compound C1] (cyclo([MeBmt][Abu][Sar][NMeI]V[NMeA]A[dA][NMeL][NMeL][NMeV])) | 0.56 | < 2000 | 99.44
C/C=C/C[C@@H](C)[C@@H](O)[C@H]1C(=O)N[C@@H](CC)C(=O)N(C)CC(=O)N(C)[C@@H](C)C(=O)N[C@@H](C(C)C)C(=O)N(C)[C@@H](C)C(=O)N[C@@H](C)C(=O)N[C@H](C)C(=O)N(C)[C@@H](CC(C)C)C(=O)N(C)[C@@H](CC(C)C)C(=O)N(C)[C@@H](C(C)C)C(=O)N1C [Compound C2] (cyclo([MeBmt][Abu][Sar][NMeA]V[NMeA]A[dA][NMeL][NMeL][NMeV])) | 5.25 | < 2000 | 94.75
C/C=C/C[C@@H](C)[C@@H](O)[C@H]1C(=O)N[C@@H](CC)C(=O)N(C)CC(=O)N(C)[C@H](C)C(=O)N[C@@H](C(C)C)C(=O)N(C)[C@@H](C)C(=O)N[C@@H](C)C(=O)N[C@H](C)C(=O)N(C)[C@@H](CC(C)C)C(=O)N(C)[C@@H](CC(C)C)C(=O)N(C)[C@@H](C(C)C)C(=O)N1C [Compound C3] (cyclo([MeBmt][Abu][Sar][dNMeA]V[NMeA]A[dA][NMeL][NMeL][NMeV])) | 13.43 | < 2000 | 86.57
C/C=C/C[C@@H](C)[C@@H](O)[C@H]1C(=O)N[C@@H](CC)C(=O)N(C)CC(=O)N(C)[C@@H](Cc2ccccc2)C(=O)N[C@@H](C(C)C)C(=O)N(C)[C@@H](C)C(=O)N[C@@H](C)C(=O)N[C@H](C)C(=O)N(C)[C@@H](CC(C)C)C(=O)N(C)[C@@H](CC(C)C)C(=O)N(C)[C@@H](C(C)C)C(=O)N1C [Compound C4] (cyclo([MeBmt][Abu][Sar][NMeF]V[NMeA]A[dA][NMeL][NMeL][NMeV])) | 4.12 | < 2000 | 95.88
C/C=C/C[C@@H](C)[C@@H](O)[C@H]1C(=O)N[C@@H](CC)C(=O)N(C)CC(=O)N(C)CC(=O)N[C@@H](C(C)C)C(=O)N(C)[C@@H](C)C(=O)N[C@@H](C)C(=O)N[C@H](C)C(=O)N(C)[C@@H](CC(C)C)C(=O)N(C)[C@@H](CC(C)C)C(=O)N(C)[C@@H](C(C)C)C(=O)N1C [Compound C5] (cyclo([MeBmt][Abu][Sar][Sar]V[NMeA]A[dA][NMeL][NMeL][NMeV])) | 9.09 | < 2000 | 90.91
C/C=C/C[C@@H](C)[C@@H](O)[C@H]1C(=O)N[C@@H](CC)C(=O)N(C)CC(=O)N(C)[C@@H]([C@@H](C)O)C(=O)N[C@@H](C(C)C)C(=O)N(C)[C@@H](C)C(=O)N[C@@H](C)C(=O)N[C@H](C)C(=O)N(C)[C@@H](CC(C)C)C(=O)N(C)[C@@H](CC(C)C)C(=O)N(C)[C@@H](C(C)C)C(=O)N1C [Compound C7] (cyclo([MeBmt][Abu][Sar][NMeT]V[NMeA]A[dA][NMeL][NMeL][NMeV])) | 2.65 | < 2000 | 97.35
C/C=C/C[C@@H](C)[C@@H](O)[C@H]1C(=O)N[C@@H](CC)C(=O)N(C)CC(=O)N(C)[C@@H](Cc2ccccc2)C(=O)N[C@@H](CC(C)C)C(=O)N(C)[C@@H](C)C(=O)N[C@@H](C)C(=O)N[C@H](C)C(=O)N(C)[C@@H](CC(C)C)C(=O)N(C)[C@@H](CC(C)C)C(=O)N(C)[C@@H](C(C)C)C(=O)N1C [Compound C12] (cyclo([MeBmt][Abu][Sar][NMeF]L[NMeA]A[dA][NMeL][NMeL][NMeV])) | 3.22 | < 2000 | 96.78

The next lines start with the values.

% signal [%] | IC50 [nM] | % inhibition of CsA binding to Cyclophilin A [%] | Compound
7.29 | < 2000 | 92.71 | C/C=C/C[C@@H](C)[C@@H](O)[C@H]1C(=O)N[C@@H](CC)C(=O)N(C)CC(=O)N(C)[C@@H](CC(C)C)C(=O)N[C@@H](C(C)C)C(=O)N(C)[C@@H](C)C(=O)N[C@@H](C)C(=O)N[C@H](C)C(=O)N(C)[C@@H](CC(C)C)C(=O)N(C)[C@@H](CC(C)C)C(=O)N(C)[C@@H](C(C)C)C(=O)N1C [Compound C6]
0.11 | < 2000 | 99.89 | C/C=C/C[C@@H](C)[C@@H](O)[C@H]1C(=O)N[C@@H](CC)C(=O)N(C)CC(=O)N(C)[C@@H]([C@@H](C)CC)C(=O)N[C@@H](CC(C)C)C(=O)N(C)[C@@H](C)C(=O)N[C@@H](C)C(=O)N[C@H](C)C(=O)N(C)[C@@H](CC(C)C)C(=O)N(C)[C@@H](CC(C)C)C(=O)N(C)[C@@H](C(C)C)C(=O)N1C [Compound C9] (cyclo([MeBmt][Abu][Sar][NMeI]L[NMeA]A[dA][NMeL][NMeL][NMeV]))
0.56 | < 2000 | 99.44 | C/C=C/C[C@@H](C)[C@@H](O)[C@H]1C(=O)N[C@@H](CC)C(=O)N(C)CC(=O)N(C)[C@@H](C)C(=O)N[C@@H](CC(C)C)C(=O)N(C)[C@@H](C)C(=O)N[C@@H](C)C(=O)N[C@H](C)C(=O)N(C)[C@@H](CC(C)C)C(=O)N(C)[C@@H](CC(C)C)C(=O)N(C)[C@@H](C(C)C)C(=O)N1C [Compound C10] (cyclo([MeBmt][Abu][Sar][NMeA]L[NMeA]A[dA][NMeL][NMeL][NMeV]))
2.70 | < 2000 | 97.30 | C/C=C/C[C@@H](C)[C@@H](O)[C@H]1C(=O)N[C@@H](CC)C(=O)N(C)CC(=O)N(C)CC(=O)N[C@@H](CC(C)C)C(=O)N(C)[C@@H](C)C(=O)N[C@@H](C)C(=O)N[C@H](C)C(=O)N(C)[C@@H](CC(C)C)C(=O)N(C)[C@@H](CC(C)C)C(=O)N(C)[C@@H](C(C)C)C(=O)N1C [Compound C13] (cyclo([MeBmt][Abu][Sar][Sar]L[NMeA]A[dA][NMeL][NMeL][NMeV]))
9.36 | < 2000 | – | C/C=C/C[C@@H](C)[C@@H](O)[C@H]1C(=O)N[C@@H](CC)C(=O)N(C)CC(=O)N(C)[C@@H](CC(C)C)C(=O)N[C@@H](CC(C)C)C(=O)N(C)[C@@H](C)C(=O)N[C@@H](C)C(=O)N[C@H](C)C(=O)N(C)[C@@H](CC(C)C)C(=O)N(C)[C@@H](CC(C)C)C(=O)N(C)[C@@H](C(C)C)C(=O)N1C [Compound C14] (cyclo([MeBmt][Abu][Sar][NMeL]L[NMeA]A[dA][NMeL][NMeL][NMeV]))
2.93 | < 2000 | 97.07 | C/C=C/C[C@@H](C)[C@@H](O)[C@H]1C(=O)N[C@@H](CC)C(=O)N(C)CC(=O)N(C)[C@@H]([C@@H](C)O)C(=O)N[C@@H](CC(C)C)C(=O)N(C)[C@@H](C)C(=O)N[C@@H](C)C(=O)N[C@H](C)C(=O)N(C)[C@@H](CC(C)C)C(=O)N(C)[C@@H](CC(C)C)C(=O)N(C)[C@@H](C(C)C)C(=O)N1C [Compound C15] (cyclo([MeBmt][Abu][Sar][NMeT]L[NMeA]A[dA][NMeL][NMeL][NMeV]))
